The source of these data is patent US20250003953A1, “Methods and Model Systems for Assessing Therapeutic Properties of Candidate Agents and Related Computer Readable Media and Systems” (The Regents of the University of California, priority 2021, published 2025).

In test [1] the test system is GENEVA cell pool of cell lines. Description: GENEVA cell pool drug sensitivity by relative cell counts from single-cell RNA sequencing. The conditions noted are these: pre/post drug treatment relative cell counts from GENEVA pools. Type of test: cell-based, human. From the text: This example is directed at discovery of genetic drivers of sensitivity to a drug compound by way of simultaneous inference of phenotype from a GENEVA cell pool. Long-duration growth balanced cell pools were created and subjected to drug treatment. After assignment to patient of origin and drug treatment condition using genetic demultiplexing using the method as described in Example 5 and sample hashing demultiplexing as described in Example 6, datasets were obtained with discrete numbers of cells in each drug treatment condition as evidenced in FIG. 2A,B,C,D,E,F. The relative number of viable cells remaining in each drug treatment condition for each cell type was counted and this drug sensitivity information was used as the response variable for a linear model. […]
The number of cells in each drug condition were counted according to the origin cell type. […]
fitness for cell type Ci against Drug Dx based on proportional representation was calculated as: […]
For each drug or vehicle Dx, the total number of cells was counted in each condition, the geometric mean of the total cell counts was calculated, and the total number of cells in each condition was divided by the geometric mean of the cell counts to obtain a normalization ratio. […]
For each of these fitness calculations, the relative fitness was calculated as: […]

Test [2] deals with H2030 (KRAS.G12C). Description: Mitochondrial content with Mitotracker Deep Red FM in long term drug tolerant line. Type of test: cell-based, human. The conditions noted are these: 30 day treatment, 10 uM; drug-persistent vs parental H2030.
In test [3] the test system is H2030 (KRAS.G12C) cells. Description: Seahorse assay measuring oxygen consumption. Type of test: cell-based, human. The conditions noted are these: 2 h after treatment.
Test [4] relates to lipid peroxidation. Description: Lipid peroxidation live cell probe dose curve and survival kinetics. Type of test: cell-based. The source says:
FIG. 7B plots gene expression of anti-ferroptotic genes for each cell line in response to increasing ARS1620 dosage. […] Lipid peroxidation and survival kinetics cross over around IC50 in all compounds indicating ARS1620 performs as a ferroptosis inducing agent.
Among this group of genes were FTH1 and FTL, the two components of the Ferritin Complex, which is responsible for sequestration of labile free iron. Using a lipid peroxidation live cell probe, lipid peroxidation—one of the hallmark phenotypes of ferroptosis—was measured in response to ARS-1620 treatment.

Test [5] deals with KRAS.G12V cell line H441. Briefly: Lipid peroxidation by KRAS inhibitors in non-KRAS.G12C line. Type of test: cell-based, human. Here is the method:
FIG. 7B plots gene expression of anti-ferroptotic genes for each cell line in response to increasing ARS1620 dosage.
Using a lipid peroxidation live cell probe, lipid peroxidation—one of the hallmark phenotypes of ferroptosis—was measured in response to ARS-1620 treatment.

Test [6] deals with KRAS.G12C cell lines in a cell pool. Briefly: GENEVA pool gene set expression after drug, in vivo. Set-up: species or system mouse. The conditions noted are these: post-drug treatment. On the procedure: 2 mL of Matrigel Basement Membrane reagent was added to the GENEVA pool prepared by growth rate balancing for a final concentration of 20M/mL. One hundred microliters of this solution was injected into NSG mice in a flank xenograft injection. Twenty-four hours later, mice harboring GENEVA tumors were drugged with the drug compound in a vehicle solution of 5% DMSO, 95% Labrasol. Mice were dosed by oral gavage four fourteen days with five days on, two days off. On the fourteenth day, mice were sacrificed, tumors harvested by homogenization with surgical shears and resuspended in 5 mg/mL Liberase™ Cell Dissociation Reagent in 1:1 DMEM: F12 cell media, DNAse I (10 U/uL). Tumors were incubated in a 37° C. incubator with shaking at 600 RPMs for 45 minutes for enzymatic dissociation and then spun down at 800 g for 5 minutes at 4° C. Dissociated tumors were resuspended in 100 uL 1×PBS.
The GENEVA datasets were compared where GENEVA pools were drugged with the KRAS.G12C inhibitor ARS1620, conducted both in vitro and in vivo. Specifically, the in vitro data were compared against the in vivo data to look for differences and similarities attributable to the context of the model systems used. […]
For in vivo and in vitro datasets, we combined the median z score results determined in Example 8 and t-test results, respectively, were combined on a paired geneset by geneset basis. […]

Regarding `C=CC(=O)N1CCN(c2ncnc3c(F)c(-c4c(O)cccc4F)c(Cl)cc23)CC1` [ARS1620], the “relative sensitivity of individual cell types (most sensitive cell lines)” value in test [1] is reported as “KRAS.G12C mutant harboring”. The “mitochondrial content after long term treatment” value in test [2] was “mitochondria are significantly ablated”. In test [3], the “oxygen consumption / mitochondrial respiration” value is on record as “significant difference in functional oxygen consumption”. Also, the “lipid peroxidation dose response” value in test [4] (48 h, fluorescent lipid peroxidation sensor) is recorded as “induced lipid peroxidation in a dose dependent fashion”. The “cross-over of survival and normalized lipid peroxidation curves” value in test [4] (dose curves) is “crossed over around the IC50 survival value”. Besides, the lipid peroxidation result in test [5] is “this effect was significantly muted”. The “endothelial-mesenchymal transition hallmark gene expression signature” value in test [6] is listed as “increased in vivo”.
